The text below walks through data of patent publication US20250059179A1, “Heterocyclic Compounds and Methods of Use” (AMGEN INC., priority 2021, published 2025).

Read-outs that look alike come from different tables or passages of the source.

For assay [1], the target named is GDP-bound KRAS protein (aa 1-169), containing both G12D and C118A amino acid substitutions (Homo sapiens, UniProt P01116, C118A/G12D). Put plainly: KRAS G12D Coupled Nucleotide Exchange Assay.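 Further: IC50 obtained by fitting the AlphaScreen signal with a four-parameter logistic curve.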 The assay is classed as biochemical. The following applies: 2 h compound pre-incubation; SOS-mediated nucleotide exchange, cRAF AlphaScreen readout.
Chain of GDP-bound KRAS protein (aa 1-169), containing both G12D and C118A amino acid substitutions (P01116 1-169 isoform P01116-2 G12D/C118A): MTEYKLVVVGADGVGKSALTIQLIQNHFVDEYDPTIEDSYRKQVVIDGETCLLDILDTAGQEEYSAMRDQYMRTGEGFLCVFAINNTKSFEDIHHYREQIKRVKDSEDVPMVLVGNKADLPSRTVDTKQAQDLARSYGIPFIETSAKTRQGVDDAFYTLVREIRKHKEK
For assay [2], the system named is Phosphorylation of ERK1/2 in A-427 cells. The assay is described as follows: Phospho-ERK1/2 MSD Assay. The assay is classed as cell-based. Conditions: 2 h compound treatment, read-out: pERK (A427 cells) IC50. As to the method: A-427 (ATCC® HTB-53™) cells were cultured in RPMI 1640 Medium (ThermoFisher Scientific 11875093) containing 10% fetal bovine serum (ThermoFisher Scientific 16000044) and 1× penicillin-streptomycin-glutamine (ThermoFisher Scientific 10378016). Sixteen hours prior to compound treatment, A-427 cells were seeded in 96-well cell culture plates at a density of 25,000 cells/well and incubated at 37° C., 5% CO2. A compound dose-response titration was diluted in growth media, added to appropriate wells of a cell culture plate, and then incubated at 37° C., 5% CO2 for 2 h. Following compound treatment, cells were washed with ice-cold Dulbecco's phosphate-buffered saline, no Ca^2+ or Mg^2+ (ThermoFisher Scientific 14190144), and then lysed in RIPA buffer (50 mM Tris-HCl pH 7.5, 1% Igepal, 0.5% sodium deoxycholate, 150 mM NaCl, and 0.5% sodium dodecyl sulfate) containing protease inhibitors (Roche 4693132001) and phosphatase inhibitors (Roche 4906837001). Phosphorylation of ERK1/2 in compound-treated lysates was assayed using Phospho-ERK1/2 Whole Cell Lysate kits (Meso Scale Discovery K151DWD) according to the manufacturer's protocol. Assay plates were read on a Meso Scale Discovery Sector Imager 6000, and data were analyzed using a 4-parameter logistic model to calculate IC50 values.

The target of assay [3] is His-tagged KRAS G12D protein (Homo sapiens, UniProt P01116, G12D). The assay is described as follows: KRAS G12D TR-FRET Assay.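 Further: europium anti-His antibody paired with streptavidin-d2 as FRET partners, initial 30 min incubation, then peptide 1 h and detection reagents 1 h, all at room temperature.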 Type of assay: binding. Conditions: biotinylated KRPep-2d substrate, 10 μM GDP.
Chain of His-tagged KRAS G12D protein (P01116 1-188 isoform P01116-2 G12D): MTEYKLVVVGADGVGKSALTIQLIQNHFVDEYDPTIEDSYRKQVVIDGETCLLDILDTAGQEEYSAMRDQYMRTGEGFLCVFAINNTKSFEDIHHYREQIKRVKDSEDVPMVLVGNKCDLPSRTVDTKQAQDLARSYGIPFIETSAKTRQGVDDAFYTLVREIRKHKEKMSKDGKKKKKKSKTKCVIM

As to `Nc1nc2c(-c3c(Cl)cc4c(N5[C@@H]6CC[C@H]5CNC6)nc(OC[C@]56CCCN5C[C@H](F)C6)nc4c3F)ccc(F)c2s1` [Example 123, 4-(4-((1R,5S)-3,8-diazabicyclo[3.2.1]octan-8-yl)-6-chloro-8-fluoro-2-(((2R,7aR)-2-fluorotetrahydro-1H-pyrrolizin-7a(5H)-yl)methoxy)quinazolin-7-yl)-7-fluorobenzo[d]thiazol-2-amine], the “Avg 2 h Coupled Exchange IC50” value in assay [1] amounted to 0.006 µM. The IC50 was found to be 0.069 µM in assay [2] (Homo sapiens, A-427, 2 h) and 0.005 µM in assay [3].
For `Nc1nc2c(-c3c(Cl)cc4c(N5CCNCC5)nc(OC[C@@]56CCCN5[C@@H](CO)CC6)nc4c3F)cccc2s1` [Example 51, ((3R,7aS)-7a-(((7-(2-aminobenzo[d]thiazol-4-yl)-6-chloro-8-fluoro-4-(piperazin-1-yl)quinazolin-2-yl)oxy)methyl)hexahydro-1H-pyrrolizin-3-yl)methanol], the “Avg 2 h Coupled Exchange IC50” value in assay [1] amounted to 0.042 µM. Moreover, the IC50 in assay [2] (Homo sapiens, A-427, 2 h) was 16.7 µM; in assay [3], 0.053 µM.
With `Nc1nc2c(-c3c(Cl)cc4c(N5CC6CNCC5C6)nc(OC[C@@]56CCCN5C[C@H](F)C6)nc4c3F)ccc(F)c2s1` (single isomer, unassigned) [Example 30], in assay [1], the “Avg 2 h Coupled Exchange IC50” value came out at 0.015 µM. For the same compound, the IC50 is 7.91 µM in assay [2] and 0.096 µM in assay [3].
For `Nc1nc2c(-c3c(Cl)cc4c(N5CCNCC5)nc(OC[C@@H]5CCCN5)nc4c3F)cccc2s1` [Example 72, 4-(6-chloro-8-fluoro-4-(piperazin-1-yl)-2-(((S)-pyrrolidin-2-yl)methoxy)quinazolin-7-yl)benzo[d] thiazol-2-amine], the “Avg 2 h Coupled Exchange IC50” value in assay [1] was 0.063 µM. Besides, the concentration for half-maximal inhibition (IC50) is over 10 µM in assay [2] (Homo sapiens, A-427, 2 h) and 0.112 µM in assay [3].
In the case of `C=Cc1cc2c(N3C[C@H]4CC[C@@H](C3)N4)nc(OC[C@@]34CCCN3C[C@H](F)C4)nc2c(F)c1-c1ccc(F)c2sc(N)nc12` [Example 150, 4-(4-((1R,5S)-3,8-diazabicyclo[3.2.1]octan-3-yl)-8-fluoro-2-(((2R,7aS)-2-fluorotetrahydro-1H-pyrrolizin-7a(5H)-yl)methoxy)-6-vinylquinazolin-7-yl)-7-fluorobenzo[d]thiazol-2-amine], the “Avg 2 h Coupled Exchange IC50” value in assay [1] was 0.006 µM. Also, the IC50 in assay [2] (Homo sapiens, A-427, 2 h) worked out at 0.011 µM; in assay [3] it was 0.003 µM.
The corresponding values for `Nc1nc2c(-c3c(Cl)cc4c(N5CC6CC5CCN6)nc(OC[C@@]56CCCN5C[C@H](F)C6)nc4c3F)ccc(F)c2s1` (stereo partly drawn) [Example 34, 4-(4-(2,6-diazabicyclo[3.2.1]octan-6-yl)-6-chloro-8-fluoro-2-(((2R,7aS)-2-fluorotetrahydro-1H-pyrrolizin-7a(5H)-yl)methoxy)quinazolin-7-yl)-7-fluorobenzo[d] thiazol-2-amine] are 0.004 µM, 3.1 µM and 0.011 µM.
As for `Nc1nc2c(-c3c(Cl)cc4c(N5C[C@H]6CC[C@@H](C5)N6)cc(OC[C@@]56CCCN5C[C@H](F)C6)nc4c3F)ccc(F)c2s1` [Example 161, 4-(4-((1R,5S)-3,8-Diazabicyclo[3.2.1]octan-3-yl)-6-chloro-8-fluoro-2-(((2R,7aS)-2-fluorotetrahydro-1H-pyrrolizin-7a(5H)-yl)methoxy)quinolin-7-yl)-7-fluorobenzo[d]thiazol-2-amine], the “Avg 2 h Coupled Exchange IC50” value in assay [1] turned out to be 0.024 µM. The IC50 in assay [2] (Homo sapiens, A-427, 2 h) stood at 5.79 µM; in assay [3], 0.057 µM.
On to `CN1C[C@H](F)C[C@H]1COc1nc(N2[C@@H]3CNC[C@H]2COC3)c2cc(Cl)c(-c3ccc(F)c4sc(N)nc34)c(F)c2n1` [Example 125, 4-(4-((1R,5S)-3-oxa-7,9-diazabicyclo[3.3.1]nonan-9-yl)-6-chloro-8-fluoro-2-(((2S,4R)-4-fluoro-1-methylpyrrolidin-2-yl)methoxy)quinazolin-7-yl)-7-fluorobenzo[d]thiazol-2-amine], for which, in assay [1], the “Avg 2 h Coupled Exchange IC50” value stood at 0.009 µM. The half-inhibitory concentration (IC50) in assay [2] (Homo sapiens, A-427, 2 h) is 0.369 µM; in assay [3], 0.006 µM.
Regarding `C[C@H]1CNCCN1c1nc(OC[C@@H]2CCCN2C)nc2c(F)c(-c3cccc4sc(N)nc34)c(Cl)cc12` [Example 16, 4-(6-chloro-8-fluoro-4-((S)-2-methylpiperazin-1-yl)-2-(((S)-1-methylpyrrolidin-2-yl)methoxy)quinazolin-7-yl)benzo[d]thiazol-2-amine], the “Avg 2 h Coupled Exchange IC50” value in assay [1] came out at 0.023 µM. Besides, the half-maximal inhibitory concentration (IC50) stood at 4.22 µM in assay [2] (Homo sapiens, A-427, 2 h) and 0.1 µM in assay [3].
Regarding `Nc1nc2c(-c3c(Cl)cc4c(N5C6CCNCC5CC6)nc(OC[C@@]56CCCN5C[C@H](F)C6)nc4c3F)ccc(F)c2s1` (single isomer, unassigned) [Example 33], the “Avg 2 h Coupled Exchange IC50” value in assay [1] was found to be 0.01 µM. For the same compound, the 50% inhibitory concentration (IC50) in assay [2] was 0.879 µM; in assay [3], 0.063 µM.
As to `Nc1nc2c(-c3c(Cl)cc4c(N5C[C@H]6C[C@@H](C5)N6)nc(OCC56CCCN5CC(F)(F)C6)nc4c3F)ccc(F)c2s1` (stereo partly drawn) [Example 14, 4-(4-((1R,5S)-3,6-diazabicyclo[3.1.1]heptan-3-yl)-6-chloro-2-((2,2-difluorotetrahydro-1H-pyrrolizin-7a(5H)-yl)methoxy)-8-fluoroquinazolin-7-yl)-7-fluorobenzo[d] thiazol-2-amine], the “Avg 2 h Coupled Exchange IC50” value in assay [1] came to 0.014 µM. Also, the IC50 in assay [2] (Homo sapiens, A-427, 2 h) is 1.5 µM; in assay [3], 0.012 µM.
On to `CN1CCC[C@H]1COc1nc(N2C3CNCC2C3)c2cc(Cl)c(-c3cccc4sc(N)nc34)c(F)c2n1` [Example 18, 4-(4-(3,6-diazabicyclo[3.1.1]heptan-6-yl)-6-chloro-8-fluoro-2-(((S)-1-methylpyrrolidin-2-yl)methoxy)quinazolin-7-yl)benzo[d]thiazol-2-amine], for which, in assay [1], the “Avg 2 h Coupled Exchange IC50” value was found to be 0.049 µM. Also, the half-inhibitory concentration (IC50) was over 25 µM in assay [2] (Homo sapiens, A-427, 2 h) and 0.158 µM in assay [3].
In the case of `Nc1nc2c(-c3cc4nc(OC[C@@]56CCCN5C[C@H](F)C6)nc(N5[C@@H]6CC[C@H]5CNC6)c4cc3F)ccc(F)c2s1` [Example 138, 4-(4-((1R,5S)-3,8-diazabicyclo[3.2.1]octan-8-yl)-6-fluoro-2-(((2R,7aS)-2-fluorotetrahydro-1H-pyrrolizin-7a(5H)-yl)methoxy)quinazolin-7-yl)-7-fluorobenzo[d]thiazol-2-amine], in assay [1], the “Avg 2 h Coupled Exchange IC50” value is 0.011 µM. The concentration for half-maximal inhibition (IC50) stood at 1.7 µM in assay [2] (Homo sapiens, A-427, 2 h) and 0.03 µM in assay [3].
On the same counts, the results for `Nc1nc2c(-c3c(Cl)cc4c(N5CCCNCC5)nc(OC[C@@]56CCCN5C[C@H](F)C6)nc4c3F)ccc(F)c2s1` [Example 28, 4-(6-chloro-4-(1,4-diazepan-1-yl)-8-fluoro-2-(((2R,7aS)-2-fluorotetrahydro-1H-pyrrolizin-7a(5H)-yl)methoxy)quinazolin-7-yl)-7-fluorobenzo[d] thiazol-2-amine] are 0.003 µM, 2.3 µM and 0.008 µM.
In the case of `CN1CCC[C@H]1COc1nc(C2=CCNCC2)c2cc(Cl)c(-c3cccc4sc(N)nc34)c(F)c2n1` [Example 144, 4-(6-chloro-8-fluoro-2-(((S)-1-methylpyrrolidin-2-yl)methoxy)-4-(1,2,3,6-tetrahydropyridin-4-yl)quinazolin-7-yl)benzo[d]thiazol-2-amine], the “Avg 2 h Coupled Exchange IC50” value in assay [1] came to 0.037 µM. Moreover, the IC50 worked out at 2.3 µM in assay [2] (Homo sapiens, A-427, 2 h) and 0.079 µM in assay [3].
